One series has as its system CASKI cells. The series is described as follows: MTT cytotoxicity, CASKI. In kind it is cell-based, human. The source says: (§1) To evaluate the anticancer potential of the studied E. spiculifolia extract, we employed a diverse panel of human cancer cell lines alongside a non-malignant control. The hematological models included LAMA-84, a chronic myeloid leukemia line harboring the Philadelphia chromosome [t(9;22)], and HL-60, an acute promyelocytic leukemia line characterized by the t(15;17) translocation. These suspension cultures allowed us to assess the effects on leukemic cells with distinct genetic drivers. In parallel, we investigated the antitumor activity of the plant extract against reproductive system-associated carcinomas, including breast carcinoma cells (MCF-7 and MDA-MB-231) and a cervical cancer cell line (CASKI). MCF-7 cells are hormone-responsive and widely used to model estrogen receptor-positive disease, whereas MDA-MB-231 cells are triple-negative, highly aggressive, and resistant to conventional anti-hormonal therapy. To further broaden the spectrum, we included CASKI, a cervical carcinoma line associated with HPV16 infection, thereby extending the analysis to virally driven epithelial cancer. In addition, normal murine fibroblast cells (CCL-1) were used as a non-malignant comparator, enabling an assessment of selectivity between normal and malignant cells. The presence and degree of tumor selectivity was assessed by calculating the correspondent selectivity indices (SI, selectivity index), defined as the ratio between the half-inhibitory concentrations of the extract in healthy and malignant cells (Table 2).
(§2) The antiproliferative activity of the extract, gallic, oleanolic, and protocatechuic acids was screened against human malignant cell lines of hematological (LAMA-84, HL-60) and epithelial (MDA-MB-231, MCF-7, CASKI) origin, as well as normal murine fibroblast cells (CCL-1). All cell lines were purchased from the German Collection of Microorganisms and Cell Cultures (DSMZ GmbH, Braunschweig, Germany). Cell cultures were cultivated in a growth medium RPMI 1640 supplemented with 10% fetal bovine serum (FBS), 5% L-glutamine, and incubated under standard conditions of 37 °C and 5% humidified CO2 atmosphere.
(§3) The cytotoxic potential of the E. spiculifolia extract was studied using a validated method for assessing cell viability known as the Mosmann MTT test. The assay is colorimetric and measures the activity of mitochondrial enzymes, reducing the yellow dye MTT (3-(4,5-dimethylthiazol-2-yl)-2,5-diphenyltetrazolium bromide) to violet formazan crystals. According to protocol, exponential-phased cells were harvested and seeded (100 μL/well) in 96-well plates at the appropriate density. Following a 24 h incubation, cells were treated with serial dilutions of the extract in the concentration range 1000–31.3 μg/mL. Following a 72 h exposure, filter sterilized MTT substrate solution (5 mg/mL in PBS) was added to each well of the culture plate. A further 4h incubation allowed the reduction of the yellow MTT reagent into purple formazan crystals in metabolically active viable cells, which were dissolved in an isopropyl alcohol solution containing 5% formic acid prior to absorbance measurement at 550 nm. Untreated cells (100% cell viability) were used as negative control. Cisplatin was used as positive control.
(§4) Collected absorbance values were blanked against MTT and isopropanol solution and normalized to the mean value of untreated control (100% cell viability). The obtained data were fitted to “concentration-effect” curves and analyzed by means of non-linear regression in the GraphPad Prism 8.0 software. Statistical analyses were performed using one-way analysis of variance (ANOVA) to assess differences among experimental groups. Where significant differences were detected, post hoc comparisons were conducted using Tukey’s test.

The subject of series [1] is triple-negative MDA-MB-231 breast cancer cells. Details: method as in doi:10.3724/SP.J.1145.2010.00202. Particulars: cited from earlier work.
Another series relates to MCF-7 cells. The experiment in a line: MTT cytotoxicity, MCF-7. In kind it is cell-based, human.
Excerpt: as §1, §2, §3, §4

Another series has as its system HL-60 cells. The series is described as follows: MTT cytotoxicity, HL-60. In kind it is cell-based, human.
Excerpt: as §1, §2, §3, §4

Series [2] relates to CCL-1 normal murine fibroblast cells. The experiment in a line: MTT cytotoxicity, normal fibroblasts CCL-1. In kind it is cell-based.
Excerpt: as §1, §2
as §3, with “Following a 72 h exposure, filter sterilized MTT substrate solution (5 mg/mL in PBS) was added to each well of the culture plate.” left out, “Untreated cells (100% cell viability) were used as negative control. Cisplatin was used as positive control.” left out
Collected absorbance values were blanked against MTT and isopropanol solution and normalized to the mean value of untreated control (100% cell viability). The obtained data were fitted to “concentration-effect” curves and analyzed by means of non-linear regression in the GraphPad Prism 8.0 software. […] Where significant differences were detected, post hoc comparisons were conducted using Tukey’s test.

Another series concerns MDA-MB-231 cells. The experiment in a line: MTT cytotoxicity, MDA-MB-231. It counts as cell-based, human.
Excerpt: as §1, §2, §3, §4

Series [3] relates to hepatocellular carcinoma HuH7 cells. Details: method as in PMID 20415421. Particulars: cited from earlier work.
The next series concerns LAMA-84 cells. The experiment in a line: MTT cytotoxicity, LAMA-84. In kind it is cell-based, human.
Excerpt: as §1, §2, §3, §4

Series [4] has as its system cancer versus normal cell models. The arrangement: method as in PMID 36297448, doi:10.13005/bpj/3133, PMID 37108571. Particulars: depending on the cancer versus normal cell models applied; cited from earlier work.
Another series deals with SW480. Details: method as in PMID 30928277. Particulars: cited from earlier work.
The test system of another series is HCT116. Details: method as in PMID 30928277. Particulars: cited from earlier work.
Where [5] appears, read: Homo sapiens, Ca-Ski, MTT, 72 h exposure, cervical cancer, read-out: IC50 CASKI (converted).
Where [6] appears, read: 72 h, concentrations up to 500 μg/mL.
Where [7] appears, read: Homo sapiens, MCF7, MTT, 72 h exposure, hormone-responsive breast carcinoma, read-out: IC50 MCF-7 (converted).
The mark [8] stands for this setting: Homo sapiens, HL-60, MTT, 72 h exposure, promyelocytic leukemia, read-out: IC50 HL-60 (converted).
Setting [9] is: Mus musculus, MTT, 72 h exposure, normal murine fibroblast cells, read-out: IC50 CCL-1 (converted).
[10] abbreviates: Homo sapiens, MDA-MB-231, MTT, 72 h exposure, triple-negative breast carcinoma, read-out: IC50 MDA-MB-231 (converted).
[11] abbreviates: Homo sapiens, LAMA-84, MTT, 72 h exposure, bcr-abl+ chronic myeloid leukemia, read-out: IC50 LAMA-84 (converted).
The mark [12] stands for this setting: Homo sapiens, LAMA-84, MTT, 72 h exposure, molar equivalent in brackets, read-out: IC50 LAMA-84 (converted).

Values after ≈ are worked out from the molar mass of the structure shown. Values joined by “and” are separate entries in the source; they are usually repeats but may differ in a detail not shown here. Equal values may be shown once. “Also recorded” adds a separate entry of the source. Read-outs that look alike come from different tables or passages of the source. Where only a bound is given, the exact number is not on record here.

With `CC1(C)CC[C@]2(C(=O)O)CC[C@]3(C)C(=CC[C@@H]4[C@@]5(C)CC[C@H](O)C(C)(C)[C@@H]5CC[C@]43C)[C@@H]2C1` [oleanolic acid], the “cytotoxicity against CASKI (in words)” value in the series with CASKI cells (72 h exposure) is “inactive”. Besides, the IC50 with CASKI cells (setting [5]) is more than 500 µg/mL; in the series with MCF-7 cells (setting [7]), more than 500 µg/mL; in the series with HL-60 cells (setting [8]), more than 500 µg/mL; in series [2] (setting [9]) it was more than 500 µg/mL; with MDA-MB-231 cells (setting [10]) it was more than 500 µg/mL; in series [3], 100 µM. Moreover, the IC50 with LAMA-84 cells (setting [11]) was 1.7 µg/mL; in the series on LAMA-84 cells (setting [12]) it was 3.7 µM. Besides, in series [1], the “IC50 MDA-MB-231 (previous studies)” value was 38.8 µg/mL (≈ 85 µM). The “cytotoxicity against MCF-7 (in words)” value with MCF-7 cells (setting [6]) was “inactive; also recorded: did not exert cytotoxic effects”. In the series on MDA-MB-231 cells (setting [6]), the “cytotoxicity against MDA-MB-231 (in words)” value is “inactive; also recorded: did not exert cytotoxic effects”.
Take `O=C(O)c1cc(O)c(O)c(O)c1` [gallic acid]: in the series on CASKI cells (72 h exposure), the “cytotoxicity against CASKI (in words)” value is “inactive”. The IC50 in the series on CASKI cells (setting [5]) is more than 500 µg/mL; in the series with MCF-7 cells (setting [7]), more than 500 µg/mL; with HL-60 cells (setting [8]), more than 500 µg/mL; in series [2] (setting [9]), more than 500 µg/mL; in the series with MDA-MB-231 cells (setting [10]), more than 500 µg/mL; with LAMA-84 cells (setting [11]) it was 6.2 µg/mL. The IC50 with LAMA-84 cells (setting [12]) was 36.4 µM.
Take `COc1cccc2c1C(=O)c1c(O)c3c(c(O)c1C2=O)C[C@@](O)(C(=O)CO)C[C@@H]3O[C@H]1C[C@H](N)[C@H](O)[C@H](C)O1` [doxorubicin]: the “SI values typically reported” value in series [4] is listed as 1–40.
With `N.N.[Cl][Pt][Cl]` [cisplatin, reference compound], in the series with CASKI cells (MTT, 72 h exposure, cervical cancer), the “IC50 CASKI” value is 14.6 ± 1.9 µg/mL. Besides, the IC50 is 48.6 µM with CASKI cells (MTT, 72 h exposure, molar equivalent in brackets, read-out: IC50 CASKI (converted)); 51.6 µM with MCF-7 cells (MTT, 72 h exposure, molar equivalent in brackets, read-out: IC50 MCF-7 (converted)); 8.9 µM in the series on HL-60 cells (MTT, 72 h exposure, molar equivalent in brackets, read-out: IC50 HL-60 (converted)); 18.7 µM in [2] (MTT, 72 h exposure, molar equivalent in brackets, read-out: IC50 CCL-1 (converted)); 57.1 µM with MDA-MB-231 cells (MTT, 72 h exposure, molar equivalent in brackets, read-out: IC50 MDA-MB-231 (converted)); 37.8 µM in the series on LAMA-84 cells (MTT, 72 h exposure, molar equivalent in brackets, read-out: IC50 LAMA-84 (converted)). Also, the “SI CASKI” value with CASKI cells (selectivity index = IC50 in CCL-1 / IC50 in CASKI) was less than 1. In the series on MCF-7 cells (MTT, 72 h exposure, hormone-responsive breast carcinoma), the “IC50 MCF-7” value turned out to be 15.5 ± 1.7 µg/mL. Moreover, the “SI MCF-7” value in the series with MCF-7 cells (selectivity index = IC50 in CCL-1 / IC50 in MCF-7) was less than 1. The “IC50 HL-60” value with HL-60 cells (MTT, 72 h exposure, promyelocytic leukemia) turned out to be 2.7 ± 0.4 µg/mL. In the series on HL-60 cells (selectivity index = IC50 in CCL-1 / IC50 in HL-60), the “SI HL-60” value worked out at 2.1. Moreover, the “IC50 CCL-1” value in series [2] (MTT, 72 h exposure, normal murine fibroblast cells) is 5.6 ± 0.7 µg/mL. Also, in the series with MDA-MB-231 cells (MTT, 72 h exposure, triple-negative breast carcinoma), the “IC50 MDA-MB-231” value is 17.2 ± 1.3 µg/mL. Moreover, the “SI MDA-MB-231” value in the series on MDA-MB-231 cells (selectivity index = IC50 in CCL-1 / IC50 in MDA-MB-231) was less than 1. For the same molecule, the “IC50 LAMA-84” value in the series on LAMA-84 cells (MTT, 72 h exposure, bcr-abl+ chronic myeloid leukemia) came out at 11.4 ± 0.99 µg/mL. Moreover, in the series on LAMA-84 cells (selectivity index = IC50 in CCL-1 / IC50 in LAMA-84), the “SI LAMA-84” value was less than 1. In addition, in [4], the “SI values typically reported” value is 1–40.
Consider `C[C@H]1[C@H](C)CC[C@]2(C(=O)O)CC[C@]3(C)C(=CC[C@@H]4[C@@]5(C)CC[C@H](O)C(C)(C)[C@@H]5CC[C@]43C)[C@H]12` [ursolic acid], for which the IC50 in the series with SW480 is 10.2 µM; in [3] it was 75 µM; with HCT116, 13 µM.
For the molecule `O=C(O)c1ccc(O)c(O)c1` [protocatechuic acid], the IC50 with CASKI cells (Homo sapiens, Ca-Ski, 72 h, read-out: IC50 CASKI) is more than 500 µg/mL; with MCF-7 cells (Homo sapiens, MCF7, 72 h, read-out: IC50 MCF-7), more than 500 µg/mL; in the series with HL-60 cells (Homo sapiens, HL-60, 72 h, read-out: IC50 HL-60), more than 500 µg/mL; in series [2] (Mus musculus, Fibroblast, 72 h, read-out: IC50 CCL-1) it was more than 500 µg/mL; with MDA-MB-231 cells (Homo sapiens, MDA-MB-231, 72 h, read-out: IC50 MDA-MB-231), 311 µg/mL; in the series on LAMA-84 cells (Homo sapiens, LAMA-84, 72 h, read-out: IC50 LAMA-84) it was > 500 µg/mL and > 3.24 mM.
